The values below come from ChEMBL document CHEMBL1687921, “Natural product-based phenols as novel probes for mycobacterial and fungal carbonic anhydrases” (J Med Chem, 2011).

For test [1], the target named is T1, PROBABLE TRANSMEMBRANE CARBONIC ANHYDRASE (CARBONATE DEHYDRATASE) (CARBONIC DEHYDRATASE) (Mycobacterium tuberculosis, UniProt P96878).
T1 sequence (P96878 whole entry): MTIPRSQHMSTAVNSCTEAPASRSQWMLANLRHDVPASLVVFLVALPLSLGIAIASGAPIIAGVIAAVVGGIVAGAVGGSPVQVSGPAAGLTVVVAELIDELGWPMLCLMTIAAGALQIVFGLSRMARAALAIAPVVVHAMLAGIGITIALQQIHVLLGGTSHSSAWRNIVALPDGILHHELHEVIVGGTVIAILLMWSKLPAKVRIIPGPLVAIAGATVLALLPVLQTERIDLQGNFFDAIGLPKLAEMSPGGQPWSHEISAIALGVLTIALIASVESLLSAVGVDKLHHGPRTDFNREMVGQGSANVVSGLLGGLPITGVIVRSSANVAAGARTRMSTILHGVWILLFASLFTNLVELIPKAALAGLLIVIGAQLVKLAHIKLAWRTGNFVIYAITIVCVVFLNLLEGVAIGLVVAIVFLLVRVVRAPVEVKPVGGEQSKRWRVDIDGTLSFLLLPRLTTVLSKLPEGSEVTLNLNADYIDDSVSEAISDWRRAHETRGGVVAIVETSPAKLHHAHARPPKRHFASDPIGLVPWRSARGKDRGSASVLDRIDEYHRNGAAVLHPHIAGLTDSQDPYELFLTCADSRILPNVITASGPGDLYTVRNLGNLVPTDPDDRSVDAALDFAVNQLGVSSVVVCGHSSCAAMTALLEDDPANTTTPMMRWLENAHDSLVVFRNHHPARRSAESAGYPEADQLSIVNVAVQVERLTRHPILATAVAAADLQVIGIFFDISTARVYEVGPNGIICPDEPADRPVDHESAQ
Description: Inhibition of Mycobacterium tuberculosis recombinant Rv3273 beta-carbonic anhydrase after 15 mins by stopped flow CO2 hydration assay

Test [2] addresses T2, Beta-carbonic anhydrase 1 (Mycobacterium tuberculosis, UniProt P9WPJ7).
T2 sequence (P9WPJ7 whole entry): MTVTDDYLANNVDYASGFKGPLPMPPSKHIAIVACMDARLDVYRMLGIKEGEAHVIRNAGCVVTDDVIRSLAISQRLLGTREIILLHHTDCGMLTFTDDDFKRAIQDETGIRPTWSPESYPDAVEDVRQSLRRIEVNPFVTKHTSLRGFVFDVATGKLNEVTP
Description: Inhibition of Mycobacterium tuberculosis recombinant Rv1284 beta-carbonic anhydrase after 15 mins by stopped flow CO2 hydration assay

Test [3] deals with T3, Carbonic anhydrase (Candida albicans (strain SC5314 / ATCC MYA-2876) (Yeast), UniProt Q5AJ71).
T3 sequence (Q5AJ71 whole entry): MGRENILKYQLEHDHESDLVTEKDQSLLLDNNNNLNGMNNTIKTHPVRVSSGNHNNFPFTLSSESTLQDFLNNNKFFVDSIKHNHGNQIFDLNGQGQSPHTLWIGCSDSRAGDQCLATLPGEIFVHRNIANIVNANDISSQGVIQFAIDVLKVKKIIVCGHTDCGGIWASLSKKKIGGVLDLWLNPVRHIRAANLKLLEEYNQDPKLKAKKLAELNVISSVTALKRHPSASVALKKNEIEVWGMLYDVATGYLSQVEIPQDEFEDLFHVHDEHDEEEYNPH
Description: Inhibition of Candida albicans recombinant Nce103 beta-carbonic anhydrase after 15 mins by stopped flow CO2 hydration assay

Test [4] has as its target T4, Carbonic anhydrase 2 (Cryptococcus neoformans, UniProt Q3I4V7).
T4 sequence (Q3I4V7 whole entry): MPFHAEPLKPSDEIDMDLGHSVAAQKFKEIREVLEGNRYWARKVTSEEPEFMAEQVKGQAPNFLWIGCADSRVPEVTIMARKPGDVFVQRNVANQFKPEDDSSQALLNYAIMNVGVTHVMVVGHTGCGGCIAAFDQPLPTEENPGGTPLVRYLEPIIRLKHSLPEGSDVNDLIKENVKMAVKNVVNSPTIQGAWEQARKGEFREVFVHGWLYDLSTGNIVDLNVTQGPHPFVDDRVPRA
Description: Inhibition of Cryptococcus neoformans recombinant Can2 beta-carbonic anhydrase after 15 mins by stopped flow CO2 hydration assay

Test [5] has as its target T5, Beta-carbonic anhydrase 1 (Mycobacterium tuberculosis) (UniProt P9WPJ7).
T5 sequence (whole entry): T2 sequence (P9WPJ7 whole entry)

For test [6], the target named is Carbonic anhydrase 1 (Homo sapiens, UniProt P00915).
Chain of Carbonic anhydrase 1 (P00915 whole entry): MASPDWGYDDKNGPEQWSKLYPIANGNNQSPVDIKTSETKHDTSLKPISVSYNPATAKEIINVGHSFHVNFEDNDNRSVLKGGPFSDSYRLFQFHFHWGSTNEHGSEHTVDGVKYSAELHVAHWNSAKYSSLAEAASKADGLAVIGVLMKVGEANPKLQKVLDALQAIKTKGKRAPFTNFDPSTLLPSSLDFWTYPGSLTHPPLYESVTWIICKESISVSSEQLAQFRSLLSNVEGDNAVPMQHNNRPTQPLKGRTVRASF
Description: Inhibition of human recombinant alpha-carbonic anhydrase 1 after 15 mins by stopped flow CO2 hydration assay
For test [7], the target named is Carbonic anhydrase 2 (Homo sapiens, UniProt P00918).
Description: Inhibition of human recombinant alpha-carbonic anhydrase 2 after 15 mins by stopped flow CO2 hydration assay

Each structure is given as a SMILES string.

On to `COC(=O)/C=C/C(=O)N[C@@H](Cc1ccc(O)c(Cl)c1)C(=O)O` [(+)-XYLARIAMIDE A], for which the inhibition constant Ki came to 10900 nM in test [1], 710 nM in test [2], 1060 nM in test [3] and 1110 nM in test [4].

`Nc1ccc(S(N)(=O)=O)cc1` [SULFANILAMIDE] displayed a Ki in test [1] of 7110 nM.

Regarding `O=C(O)Cc1ccc(O)c(Cl)c1`, the Ki was determined as 10800 nM in test [1], 10300 nM in test [2], 1080 nM in test [3] and 1120 nM in test [4].

With `COc1cc(C)cc2oc3ccc(O)c(C(=O)O)c3c(=O)c12`, the inhibition constant Ki amounted to 11400 nM in test [1], 10500 nM in test [2], 1060 nM in test [3] and 1120 nM in test [4].

For the compound `NS(=O)(=O)c1ccc(CCNC(=O)Cc2ccc(O)c(Cl)c2)cc1`, the Ki in test [1] came out at 850 nM; in test [2] it was 1160 nM; in test [3] it was 790 nM; in test [4], 740 nM.

For the compound `NC(=O)Cc1ccc(O)c(Cl)c1`, the Ki in test [1] is 11200 nM; in test [2], 10500 nM; in test [3] it was 1000 nM; in test [4], 850 nM.

Take `COC(=O)/C=C/C(=O)N[C@H](Cc1ccc(O)c(Cl)c1)C(=O)O` [(-)-XYLARIAMIDE A]: the Ki is 11300 nM in test [1], 840 nM in test [2], 1030 nM in test [3] and 1150 nM in test [4].

In the case of `Oc1ccccc1` [PHENOL], the inhibition constant Ki in test [1] stood at 79000 nM; in test [2], 64000 nM; in test [3], 17300 nM; in test [4], 25900 nM.

`OCCc1ccc(O)cc1` [TYROSOL] gave a fold change (FC) in test [5] of 75. Besides, the Ki turned out to be 12100 nM in test [1]; 850 nM in test [2]; 1100 nM in test [3]; 1080 nM in test [4]; 430000 nM in test [6]; 8700 nM in test [7].

As to `COc1ccc(CCNC(=O)Cc2ccc(O)c(Cl)c2)cc1OC`, the Ki in test [1] stood at 900 nM; in test [2] it was 1780 nM; in test [3], 750 nM; in test [4] it was 860 nM.

For `COc1cc(C[C@@H](C)[C@H](C)Cc2ccc(O)c(OC)c2)ccc1O` [(-)-DIHYDROGUAIARETICACID], the Ki is 9100 nM in test [1]; 850 nM in test [2]; 620 nM in test [3]; 810 nM in test [4]; 307000 nM in test [6]; 230000 nM in test [7].

Take `COc1cccc(CCNC(=O)Cc2ccc(O)c(Cl)c2)c1`: the Ki came to 910 nM in test [1], 1270 nM in test [2], 720 nM in test [3] and 940 nM in test [4].

Consider `O=C(O)Cc1ccc(O)cc1`, for which the Ki in test [1] was 11400 nM; in test [2], 10800 nM; in test [3] it was 1020 nM; in test [4] it was 900 nM; in test [6], 309000 nM; in test [7] it was 10300 nM.

As to `O=C(Cc1ccc(O)c(Cl)c1)NCc1ccccc1`, the Ki came out at 980 nM in test [1]; 12200 nM in test [2]; 780 nM in test [3]; 720 nM in test [4]; 10500 nM in test [6]; 11400 nM in test [7].

With `O=C(Cc1ccc(O)c(Cl)c1)NCCc1ccccc1`, the Ki turned out to be 970 nM in test [1]; 800 nM in test [2]; 930 nM in test [3]; 810 nM in test [4]; 9600 nM in test [6]; 9800 nM in test [7].

On to `COc1cc([C@@H]2[C@@H](C)[C@H](C)[C@H]2c2ccc(O)c(OC)c2)ccc1O` [ENDIANDRIN A], for which the inhibitory constant (Ki) amounted to 8920 nM in test [1]; 820 nM in test [2]; 730 nM in test [3]; 770 nM in test [4]; 368000 nM in test [6]; 11700 nM in test [7].

Turning to `CCCCNC(=O)Cc1ccc(O)c(Cl)c1`, the inhibition constant Ki in test [1] is 10400 nM; in test [2], 11600 nM; in test [3] it was 810 nM; in test [4] it was 730 nM; in test [6], 10700 nM; in test [7] it was 9400 nM.

In the case of `COCCNC(=O)Cc1ccc(O)c(Cl)c1`, the Ki stood at 1140 nM in test [1]; 11000 nM in test [2]; 990 nM in test [3]; 950 nM in test [4]; 158000 nM in test [6]; 10400 nM in test [7].

Take `NC1=N/C(=C\c2ccc(O)c(O)c2)C(=O)N1` [POLYANDROCARPAMINE B]: the inhibition constant Ki was found to be 920 nM in test [1], 910 nM in test [2], 900 nM in test [3] and 950 nM in test [4].

For the compound `CC1(C)O[C@@H]2[C@@H](CO[C@@]3(COS(N)(=O)=O)OC(C)(C)O[C@@H]23)O1` [TOPIRAMATE], in test [1], affinity was put at a Ki of 3020 nM.

In the case of `COc1cc([C@@H]2[C@@H](C)[C@@H](C)[C@@H]2c2ccc(O)c(OC)c2)ccc1O` [ENDIANDRIN B], the Ki in test [1] was determined as 890 nM; in test [2], 800 nM; in test [3], 700 nM; in test [4], 950 nM; in test [6] it was 354000 nM; in test [7], 12100 nM.

In turn, `NS(=O)(=O)Cc1noc2ccccc12` [ZONISAMIDE] yielded a Ki in test [2] of 287000 nM.

Take `NC(=O)Cc1ccc(O)cc1`: the Ki came out at 9120 nM in test [1], 850 nM in test [2], 910 nM in test [3] and 840 nM in test [4].

As for `COc1cc(CO)cc2oc3ccc(O)c(C(=O)O)c3c(=O)c12`, the Ki is 10900 nM in test [1], 990 nM in test [2], 1010 nM in test [3] and 1080 nM in test [4].

In the case of `CC(C)(C)NC(=O)Cc1ccc(O)c(Cl)c1`, the Ki in test [1] was 10200 nM; in test [2] it was 12300 nM; in test [3], 960 nM; in test [4] it was 910 nM.

With `COc1cc(/C=C2\N=C(N)NC2=O)ccc1O` [POLYANDROCARPAMINE A], the Ki in test [1] was 910 nM; in test [2], 11800 nM; in test [3] it was 920 nM; in test [4], 890 nM; in test [6], 10500 nM; in test [7], 9600 nM.

What is called Ki is a measure of affinity in units of concentration, obtained from inhibition or displacement. High values mean a looser hold on the target, low ones a stronger hold on the target.
